Read-outs that look alike come from different tables or passages of the source.
How the values were obtained:
[1] = test system: Plasmodium berghei (Pb-Luc) exoerythrocytic-stage parasites; assay: microbe, parasite or virus in culture
HepG2-A16-CD81EGFP cells = assay: cells; settings: Homo sapiens; for IC50: HepG2, read-out: Tox IC50; for inhibition at 50 µM: HepG2, read-out: Tox max inhibition (%) @ 50 uM
[2] = read-out: Inhibition% @ 50 uM rep1
[3] = read-out: Inhibition% @ 50 uM rep2
[4] = read-out: PbLuc IC50, dose response, 1/3 dilutions, max conc. 10 or 50 uM, unit inferred
[5] = read-out: PbLuc max inhibition (%) @ 50 uM
[6] = HepG2, read-out: HepG2 Tox% @ 50 uM rep1
[7] = HepG2, read-out: HepG2 Tox% @ 50 uM rep2

SMILES	inhibition at 50 µM [1, 2]	inhibition at 50 µM [1, 3]	IC50 [1, 4]	inhibition at 50 µM [1, 5]	cytotoxicity at 50 µM (HepG2-A16-CD81EGFP cells; [6])	IC50 (HepG2-A16-CD81EGFP cells)	inhibition at 50 µM (HepG2-A16-CD81EGFP cells)	cytotoxicity at 50 µM (HepG2-A16-CD81EGFP cells; [7])	IC50 ([1]; read-out: PbLuc IC50, dose response, unit inferred)
CC(C)CCNCC(O)Cn1c2ccccc2c2ccccc21 (stereo not shown) [MMV006787]	103%	103%	9.6 µM	99%	98%	30.3 µM	97%		
Cc1cc(C)c2c(c1)OCN(Cc1ccccc1Cl)C2 [MMV006558]	104%	105%			100%			100%	
CC1CC2=C(CC1CNCCCN(C)C)C(C)(C)CCC2 (stereo not shown) [MMV665830]	102%	102%			98%				
Cc1ccc(S(=O)(=O)c2c(COC(=O)c3cccc(C)c3)c(-c3ccccc3)nn2C)cc1 [MMV665936]	102%	103%			27%				
COc1ccc(NC(=O)C2c3ccccc3C(=O)N(CC(C)C)C2c2cccs2)cc1 (stereo not shown) [MMV000662]	102%	106%	17.5 µM	98%	37%	> 50 µM	37%	50%	
COc1ccc(C2NCCc3c2[nH]c2ccccc32)cc1CN1CCN(c2ccc(F)cc2)CC1 (stereo not shown) [MMV019690]	103%	103%	6.28 µM	99%	101%	10.8 µM	100%		
Cc1ccc(-c2cc(C(=O)Nc3ccc(S(=O)(=O)N4CCCCC4)cc3)[nH]n2)c(O)c1 [MMV665906]	-12%	30%			-10%			-5%	
Cc1[nH]c(-c2ccc(F)cc2)cc1C(=O)NC1CCN(Cc2ccccc2)CC1 [MMV019738]	103%	102%			97%			98%	
Nc1ccc(-c2nc3cc(Oc4ccc(Oc5ccc6[nH]c(-c7ccc(N)cc7)nc6c5)cc4)ccc3[nH]2)cc1 [MMV011895]	98%	99%	6.98 µM	99%	97%	12.8 µM	100%		
COc1cc(C(=O)Nc2nc3c(cc4c5c(cccc53)CC4)s2)cc(OC)c1OC [MMV396665]	76%	80%			11%				
COc1ccc2c(c1)C1(Nc3ccccc3-c3nc4ccccc4n31)C(=O)N2 (stereo not shown) [MMV396749]	102%	102%	15.9 µM	98%	88%	> 50 µM	45%	94%	
Oc1ccc(Br)cc1CN1CCN(Cc2cccc(F)c2)CC1 [MMV000356]	100%	92%			64%				
O=C(NCc1ccco1)C1CCN(S(=O)(=O)c2ccc(Br)cc2)CC1 [MMV007430]	103%	105%			28%			34%	
Cc1cc(Nc2ccc(OCc3ccccc3)cc2)nc2cc(O)ccc12 [MMV007181]	103%	103%			98%				
COc1ccc(Nc2nc(NN=Cc3ccc(O)cc3)nc(Nc3ccc([N+](=O)[O-])cc3)n2)cc1 [MMV666689]	98%	98%	15.9 µM	95%	97%	46.8 µM	73%		
CCN(CC)CCNc1ccnc2cc3ccccc3cc12 [MMV006303]	102%	103%	20.8 µM	98%	99%	42.6 µM	92%		
COc1ccc(CCN2C(=O)c3[nH]nc(-c4cc(Cl)c(C)cc4O)c3C2c2ccccc2F)cc1 (stereo not shown) [MMV396717]	101%	101%			97%				
Cc1ccc(Cl)cc1N1CCN(CCCNC(=O)C2CCN(c3nc4ccccc4[nH]3)CC2)CC1 [MMV019746]	103%	105%			100%			101%	
CN1CCN(c2ncnc3c2[nH]c2ccc(Cl)cc23)CC1 [MMV396704]	99%	101%			32%				

SMILES	inhibition at 50 µM [1, 2]	inhibition at 50 µM [1, 3]	IC50 [1, 4]	inhibition at 50 µM [1, 5]	cytotoxicity at 50 µM (HepG2-A16-CD81EGFP cells; [6])	IC50 (HepG2-A16-CD81EGFP cells)	inhibition at 50 µM (HepG2-A16-CD81EGFP cells)	cytotoxicity at 50 µM (HepG2-A16-CD81EGFP cells; [7])	IC50 ([1]; read-out: PbLuc IC50, dose response, unit inferred)
Nc1ccc(-c2nc3cc(Cc4ccc5[nH]c(-c6ccc(N)cc6)nc5c4)ccc3[nH]2)cc1 [MMV665943]	103%	104%	10.1 µM	97%	99%	14.6 µM	95%		
COc1ccc(-c2c(C)nn3c(N)c(C#N)cnc23)cc1OC [MMV396797]	104%	106%	1.63 µM	101%	72%	25.8 µM	55%	77%	
Cc1ccc(CSCc2ccc(C(=O)NC3CC3)o2)cc1 [MMV007571]	103%	103%			66%			74%	
CCCCCCn1c(=N)n(CC(O)COc2cccc(C)c2)c2ccccc21 (stereo not shown) [MMV000445]	102%	103%	4.75 µM	100%	99%	13.7 µM	99%		
Cc1cccc(-n2ncc3c(=O)[nH]c(-n4nc(C)cc4NC(=O)c4cc5ccccc5o4)nc32)c1 [MMV403679]	100%	100%			38%			47%	
CC(C)c1ccc(CNCC(O)c2ccccc2)cc1 (stereo not shown) [MMV001049]	100%	102%			96%			97%	
COc1cc(OC)c(N(C)C(=O)c2cc3c(s2)-c2ccccc2S(=O)(=O)C3)cc1Cl [MMV006427]	99%	102%	11 µM	97%	53%	> 50 µM	39%	52%	
Oc1c(CN2CCN(c3ccccc3F)CC2)cc(Br)c2cccnc12 [MMV000760]	102%	101%	1.84 µM	93%	95%	11.5 µM	78%		
CCN(CC)CCNc1ncnc2c1[nH]c1ccc(Cl)cc12 [MMV396703]	103%	106%			95%			98%	
Clc1cc(Br)ccc1-c1ccc(CNCC2CCNCC2)o1 [MMV019918]	103%	105%	8.14 µM	99%	97%	15.6 µM	100%	99%	
Cc1sc2ncnc(Sc3nc4ccccc4[nH]3)c2c1C [MMV019266]	98%	102%	0.53 µM	101%	31%	> 50 µM	28%	47%	
C[n+]1c2ccccc2nc2ccc(NCCO)cc21 [MMV396693]	102%	104%			81%			93%	
COc1cc2c(cc1OC)C1=NNC(=O)C1=NC(C)(C)C2 [MMV084940]	103%	102%	4.02 µM	99%	99%	31.3 µM	94%	100%	
O=C(NC(c1ccccc1)c1ccc2cccnc2c1O)c1ccccc1 (stereo not shown) [MMV666080]	101%	102%	1.55 µM	101%	92%	4 µM	84%	93%	
CC(C)(C)c1ccc(C(=O)Nc2nc3ccccc3s2)cc1 [MMV142383]	103%	105%			89%			96%	
O=c1nc(C=Cc2ccc(Br)cc2)oc2ccccc12 [MMV666599]	102%	103%			70%				
CC(C)OCc1cc(CN2CCN(c3cccc(Cl)c3)CC2)c(O)c2ncccc12 [MMV000788]	103%	106%	0.99 µM	101%	99%	3.01 µM	94%	100%	
Oc1ccc(-c2nc(-c3ccc4oc5ccc(-c6[nH]c(-c7ccc(O)cc7)nc6-c6ccccc6)cc5c4c3)c(-c3ccccc3)[nH]2)cc1 [MMV000753]	104%	104%	5.88 µM	99%	101%	> 50 µM	39%		
Cc1cc(NC(=O)C2c3ccccc3C(=O)N(CC(C)C)C2c2cccs2)no1 (stereo not shown) [MMV006429]	103%	104%		96%	15%	> 50 µM	18%	18%	21.4 µM
